Measurements taken from ChEMBL document CHEMBL4002571, “Novel designed VmCT1 analogs with increased antimicrobial activity” (Eur J Med Chem, 2017).
The source made the active and inactive calls. The calls are words filed in the database; no cut-off is given here.

Legend:
Candida tropicalis = assay: Antifungal activity against Candida tropicalis IOC 4560 after 18 hrs by liquid growth inhibition assay; assay type: functional; details: IOC 4560, 18 h, read-out: MIC100
Bacillus spizizenii [1] = assay: Antibacterial activity against Bacillus subtilis ATCC 6633 after 18 hrs by liquid growth inhibition assay; assay type: functional; details: ATCC 6633, 18 h, read-out: MIC100
Enterobacter cloacae [2] = assay: Antibacterial activity against Enterobacter cloacae beta-12 after 18 hrs by liquid growth inhibition assay; assay type: functional; details: beta-12, 18 h, read-out: MIC100
Pseudomonas aeruginosa [3] = assay: Antibacterial activity against Pseudomonas aeruginosa ATCC 27853 after 18 hrs by liquid growth inhibition assay; assay type: functional; details: ATCC 27853, 18 h, read-out: MIC100
Cladosporium herbarum [4] = assay: Antifungal activity against Cladosporium herbarum after 72 hrs by liquid growth inhibition assay; assay type: functional; details: read-out: MIC100
Aspergillus niger [5] = assay: Antifungal activity against Aspergillus niger after 72 hrs by liquid growth inhibition assay; assay type: functional; details: read-out: MIC100
Micrococcus luteus = assay: Antibacterial activity against Micrococcus luteus A270 after 18 hrs by liquid growth inhibition assay; assay type: functional; details: A270, 18 h, read-out: MIC100
Candida parapsilosis [6] = assay: Antifungal activity against Candida parapsilosis IOC 4564 after 18 hrs by liquid growth inhibition assay; assay type: functional; details: Lodderomyces parapsilosis, IOC 4564, 18 h; read-out: MIC100
[7] = test system: Staphylococcus epidermidis; assay: Antibacterial activity against Staphylococcus epidermidis ATCC 12228 after 18 hrs by liquid growth inhibition assay; assay type: functional; details: ATCC 12228, 18 h, read-out: MIC100
Cryptococcus neoformans = assay: Antifungal activity against Cryptococcus neoformans after 18 hrs by liquid growth inhibition assay; assay type: functional; details: read-out: MIC100
Escherichia coli [8] = assay: Antibacterial activity against Escherichia coli D31 after 18 hrs by liquid growth inhibition assay; assay type: functional; details: D31, 18 h, read-out: MIC100
Candida albicans = assay: Antifungal activity against Candida albicans MDM8 after 18 hrs by liquid growth inhibition assay; assay type: functional; details: MDM8, 18 h, read-out: MIC100
Serratia marcescens = assay: Antibacterial activity against Serratia marcescens ATCC 4112 after 18 hrs by liquid growth inhibition assay; assay type: functional; details: ATCC 4112, 18 h, read-out: MIC100
Erythrocyte = assay: Hemolytic activity in human erythrocytes after 1 hr; assay type: ADME, cell-based
Staphylococcus aureus [9] = assay: Antibacterial activity against Staphylococcus aureus ATCC 29213 after 18 hrs by liquid growth inhibition assay; assay type: functional; details: ATCC 29213, 18 h, read-out: MIC100
Escherichia coli [10] = assay: Antibacterial activity against Escherichia coli SBS 363 after 18 hrs by liquid growth inhibition assay; assay type: functional; details: SBS 363, 18 h, read-out: MIC100
Candida parapsilosis [11] = assay: Antifungal activity against Candida parapsilosis IOC 4564 up to 50 umol/L after 18 hrs by liquid growth inhibition assay; assay type: functional
Aspergillus niger [12] = assay: Antifungal activity against Aspergillus niger up to 50 umol/L after 72 hrs by liquid growth inhibition assay; assay type: functional
Cladosporium herbarum [13] = assay: Antifungal activity against Cladosporium herbarum up to 50 umol/L after 72 hrs by liquid growth inhibition assay; assay type: functional
Enterobacter cloacae [14] = assay: Antibacterial activity against Enterobacter cloacae beta-12 up to 50 umol/L after 18 hrs by liquid growth inhibition assay; assay type: functional
Escherichia coli [15] = assay: Antibacterial activity against Escherichia coli SBS 363 up to 50 umol/L after 18 hrs by liquid growth inhibition assay; assay type: functional
Bacillus spizizenii [16] = assay: Antibacterial activity against Bacillus subtilis ATCC 6633 up to 50 umol/L after 18 hrs by liquid growth inhibition assay; assay type: functional
Bacillus spizizenii [17] = assay: Antibacterial activity against Bacillus subtilis ATCC 6633 measured every 4 hrs by broth micro-dilution method; assay type: functional; details: ATCC 6633, 4 h
Staphylococcus aureus [18] = assay: Antibacterial activity against Staphylococcus aureus ATCC 25923 measured every 4 hrs by broth micro-dilution method; assay type: functional; details: ATCC 25923, 4 h
Pseudomonas aeruginosa [19] = assay: Antibacterial activity against Pseudomonas aeruginosa ATCC 9027 measured every 4 hrs by broth micro-dilution method; assay type: functional; details: ATCC 9027, 4 h
Escherichia coli [20] = assay: Antibacterial activity against Escherichia coli ATCC 25922 measured every 4 hrs by broth micro-dilution method; assay type: functional; details: ATCC 25922, 4 h

| Substance | MIC (Candida tropicalis) | MIC (Bacillus spizizenii [1]) | MIC (Enterobacter cloacae [2]) | MIC (Pseudomonas aeruginosa [3]) | MIC (Cladosporium herbarum [4]) | MIC (Aspergillus niger [5]) | MIC (Micrococcus luteus) | MIC (Candida parapsilosis [6]) | MIC [7] | MIC (Cryptococcus neoformans) | MIC (Escherichia coli [8]) | MIC (Candida albicans) | MIC (Serratia marcescens) | MIC (Staphylococcus aureus [9]) | MIC (Escherichia coli [10]) | MHC (Erythrocyte) | other results |
| --- | --- | --- | --- | --- | --- | --- | --- | --- | --- | --- | --- | --- | --- | --- | --- | --- | --- |
| H-FLGALWKVAKSVF-NH2 | 1.56 µM | 3.12 µM | 6.25 µM | 0.39 µM | 12.5 µM | 6.25 µM | 1.56 µM | 1.56 µM | 1.56 µM | 1.56 µM | 1.56 µM | 1.56 µM | 0.78 µM | 1.56 µM | 1.56 µM | 1.6 µmol/L | – |
| H-FLGALWNVWKSVF-NH2 | 6.25 µM | 6.25 µM | 6.25 µM | 0.78 µM | 50 µM | 50 µM | 1.56 µM | 50 µM | 3.12 µM | 3.12 µM | 1.56 µM | 1.56 µM | 1.56 µM | 1.56 µM | 1.56 µM | 1.6 µmol/L | – |
| H-FLGALWNVAKSVF-NH2 | 6.25 µM | 25 µM | 25 µM | 0.78 µM | 50 µM | 25 µM | 1.56 µM | 25 µM | 3.12 µM | 3.12 µM | 3.12 µM | 12.5 µM | 1.56 µM | 3.12 µM | – | 6.25 µmol/L | MIC (Bacillus spizizenii [17]): 20 µM; MIC (Staphylococcus aureus [18]): 10 µM; MIC (Pseudomonas aeruginosa [19]): 10 µM; MIC (Escherichia coli [20]): 25 µM |
| H-FLGALWNVAKKVF-NH2 | 3.12 µM | 6.25 µM | 6.25 µM | 0.39 µM | 6.25 µM | 6.25 µM | 1.56 µM | 6.25 µM | 1.56 µM | 1.56 µM | 1.56 µM | 1.56 µM | 0.78 µM | 1.56 µM | 1.56 µM | 1.6 µmol/L | – |

Continued by falling MIC (Candida tropicalis), values first:

| MIC (Candida tropicalis) | MIC (Bacillus spizizenii [1]) | MIC (Enterobacter cloacae [2]) | MIC (Pseudomonas aeruginosa [3]) | MIC (Cladosporium herbarum [4]) | MIC (Aspergillus niger [5]) | MIC (Micrococcus luteus) | MIC (Candida parapsilosis [6]) | MIC [7] | MIC (Cryptococcus neoformans) | MIC (Escherichia coli [8]) | MIC (Candida albicans) | MIC (Serratia marcescens) | MIC (Staphylococcus aureus [9]) | MIC (Escherichia coli [10]) | Substance | MHC (Erythrocyte) | other results |
| --- | --- | --- | --- | --- | --- | --- | --- | --- | --- | --- | --- | --- | --- | --- | --- | --- | --- |
| 12.5 µM | 12.5 µM | 25 µM | 0.78 µM | 25 µM | 25 µM | 1.56 µM | 50 µM | 6.25 µM | 6.25 µM | 12.5 µM | 12.5 µM | 1.56 µM | 6.25 µM | 12.5 µM | H-FLGALWEVAKSVF-NH2 | 1.6 µmol/L | – |
| 12.5 µM | 12.5 µM | 50 µM | 3.12 µM | – | – | 3.12 µM | – | 6.25 µM | 6.25 µM | 6.25 µM | 6.25 µM | 3.12 µM | 12.5 µM | 12.5 µM | H-FLGELWNVWKSVF-NH2 | 1.6 µmol/L | growth inhibition (GI) (Candida parapsilosis [11]): inactive; growth inhibition (GI) (Aspergillus niger [12]): inactive; growth inhibition (GI) (Cladosporium herbarum [13]): inactive |
| 12.5 µM | – | – | 3.12 µM | – | – | 25 µM | – | 50 µM | 12.5 µM | 50 µM | 50 µM | 3.12 µM | 50 µM | – | H-FLGELWNVAKSVF-NH2 | 25 µmol/L | growth inhibition (GI) (Candida parapsilosis [11]): inactive; growth inhibition (GI) (Enterobacter cloacae [14]): inactive; growth inhibition (GI) (Aspergillus niger [12]): inactive; growth inhibition (GI) (Escherichia coli [15]): inactive; growth inhibition (GI) (Cladosporium herbarum [13]): inactive; growth inhibition (GI) (Bacillus spizizenii [16]): inactive |
| 3.12 µM | 6.25 µM | 6.25 µM | 0.78 µM | 25 µM | 12.5 µM | 0.78 µM | 6.25 µM | 3.12 µM | 3.12 µM | 1.56 µM | 3.12 µM | 1.56 µM | 3.12 µM | 1.56 µM | H-FLKALWNVAKSVF-NH2 | 1.6 µmol/L | – |
